Experiment: Antioxidant activity assessed as hydroxyl radical scavenging activity
Format: functional

SMILES | IC50 [µM]
O=c1c(O)c(-c2ccc(O)c(O)c2)oc2cc(O)cc(O)c12 [QUERCETIN] | 110
C=C1C[C@@]23CC[C@H]4[C@@](C)(CCC[C@@]4(C)C(=O)O[C@@H]4O[C@H](CO)[C@@H](O)[C@H](O)[C@H]4O)[C@@H]2CC[C@]1(O[C@@H]1O[C@H](CO)[C@@H](O)[C@H](O)[C@H]1O[C@@H]1O[C@H](CO)[C@@H](O)[C@H](O)[C@H]1O)C3 [STEVIOSIDE] | 1500

— ChEMBL document CHEMBL2390831, “Steviol glycosides: chemical diversity, metabolism, and function” (J Nat Prod, 2013)
